Measured values from PubChem BioAssay (NCI).
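The compound was tested at five concentrations on cells cultured in 96-well plates, with a 48-hour exposure period. GI50 = concentration required for 50% inhibition of growth. At the TGI there is no net growth.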

What was measured:
Experiment in all cases: growth of human tumour cells (NCI), 48 h
[1] = system: SNB-19 CNS
[2] = system: SK-MEL-5 melanoma
[3] = system: DU-145 prostate
[4] = system: EKVX NSCLC
[5] = system: NCI-H23 lung
[6] = system: TK-10 renal
[7] = system: HCC-2998 colon
[8] = system: LOX IMVI melanoma
[9] = system: SW-620 colon
[10] = system: OVCAR-8 ovarian
[11] = system: UACC-62 melanoma
[12] = system: MDA-MB-231 breast
[13] = system: K-562 leukemia
[14] = system: 786-0 renal
[15] = system: MCF7 breast
[16] = system: M14 melanoma
[17] = system: T-47D breast
[18] = system: ACHN renal
[19] = system: BT-549 breast
[20] = system: A549 NSCLC
[21] = system: A498 renal
[22] = system: UO-31 renal
[23] = system: RPMI-8226 leukemia
[24] = system: NCI/ADR-RES ovarian
[25] = system: HCT-15 colon
[26] = system: COLO 205 colon
[27] = system: SF-295 CNS
[28] = system: SK-OV-3 ovarian
[29] = system: IGROV1 ovarian
[30] = system: HCT-116 colon
[31] = system: SN12C renal
[32] = system: SK-MEL-28 melanoma
[33] = system: HT29 colon
[34] = system: SR leukemia
[35] = system: U251 CNS
[36] = system: HOP-62 NSCLC
[37] = system: OVCAR-3 ovarian
[38] = system: PC-3 prostate
[39] = system: SF-539 CNS
[40] = system: CCRF-CEM leukemia
[41] = system: OVCAR-5 ovarian
[42] = system: HS 578T breast
[43] = system: MALME-3M melanoma
[44] = system: CAKI-1 renal
[45] = system: HOP-92 NSCLC
[46] = system: SK-MEL-2 melanoma
[47] = system: MDA-MB-435
[48] = system: NCI-H226 lung
[49] = system: UACC-257 melanoma
[50] = system: HL-60(TB) leukemia
[51] = system: NCI-H460 lung
[52] = system: MOLT-4 leukemia
[53] = system: OVCAR-4 ovarian
[54] = system: SNB-75 CNS
[55] = system: KM12 colon
[56] = system: SF-268 CNS
[57] = system: NCI-H522 lung
[58] = system: RXF 393 renal

## OCC1OC(n2cnc3cc(Cl)c(Cl)cc32)C(O)C1O (stereo not given)
[1]
  GI50: 25.3 µM
  TGI: > 100 µM
[2]
  GI50: 18.5 µM
  TGI: 37.6 µM
[3]
  GI50: 17.2 µM
  TGI: > 61200 nM
[4]
  GI50: 20.8 µM
  TGI: 50.8 µM
[5]
  GI50: 18.8 µM
  TGI: 42.3 µM
[6]
  GI50: 29.3 µM
  TGI: > 86.4 µM
[7]
  GI50: 12.7 µM
  TGI: 27 µM
[8]
  GI50: 12.1 µM
  TGI: 29 µM
[9]
  GI50: 30.3 µM
  TGI: > 76.7 µM
[10]
  GI50: 34.7 µM
  TGI: > 72200 nM
[11]
  GI50: 12.2 µM
  TGI: 26.6 µM
[12]
  GI50: 21.2 µM
  TGI: 60.1 µM
[13]
  GI50: 44.8 µM
  TGI: > 100 µM
[14]
  GI50: 23.6 µM
  TGI: > 68.3 µM
[15]
  GI50: 21.5 µM
  TGI: 75.9 µM
[16]
  GI50: 9.36 µM
  TGI: 32.5 µM
[17]
  GI50: 26.1 µM
  TGI: > 71.9 µM
[18]
  GI50: 12.7 µM
  TGI: 34.6 µM
[19]
  GI50: 23 µM
  TGI: 58.4 µM
[20]
  GI50: 18.8 µM
  TGI: > 72.4 µM
[21]
  GI50: > 47300 nM
  TGI: > 67.7 µM
[22]
  GI50: 15.8 µM
  TGI: 40 µM
[23]
  GI50: 30 µM
  TGI: > 72500 nM
[24]
  GI50: 18.8 µM
  TGI: 56.6 µM
[25]
  GI50: 14.8 µM
  TGI: 37.5 µM
[26]
  GI50: 23.8 µM
  TGI: > 84500 nM
[27]
  GI50: 24.6 µM
  TGI: 85.2 µM
[28]
  GI50: 37.9 µM
  TGI: > 100 µM
[29]
  GI50: 12.5 µM
  TGI: 34.4 µM
[30]
  GI50: 18 µM
  TGI: 44.2 µM
[31]
  GI50: 20.6 µM
  TGI: 58.4 µM
[32]
  GI50: 29.3 µM
  TGI: > 100 µM
[33]
  GI50: 33.6 µM
  TGI: > 100 µM
[34]
  GI50: 648 nM
[35]
  GI50: 13.8 µM
  TGI: 37.5 µM
[36]
  GI50: 9.13 µM
  TGI: 35.4 µM
[37]
  GI50: 22.7 µM
  TGI: 72.3 µM
[38]
  GI50: 44.5 µM
  TGI: > 100 µM
[39]
  GI50: 19.9 µM
  TGI: 44.7 µM
[40]
  GI50: 38.8 µM
  TGI: > 100000 nM
[41]
  GI50: 8.01 µM
  TGI: 36.5 µM
[42]
  GI50: 27 µM
  TGI: > 96.3 µM
[43]
  GI50: 25.5 µM
  TGI: 67.5 µM
[44]
  GI50: 14.2 µM
  TGI: 47.8 µM
[45]
  GI50: 35.2 µM
  TGI: 99 µM
[46]
  GI50: 14.3 µM
  TGI: 35.9 µM
[47]
  GI50: 24 µM
  TGI: 82.6 µM
[48]
  GI50: 8.32 µM
  TGI: 35.3 µM
[49]
  GI50: 18.7 µM
  TGI: 40.7 µM
[50]
  GI50: 20 µM
  TGI: > 100 µM
[51]
  GI50: 30 µM
  TGI: > 100000 nM
[52]
  GI50: 3.85 µM
  TGI: > 41.3 µM
[53]
  GI50: 62.8 µM
  TGI: > 100000 nM
[54]
  GI50: 31.2 µM
  TGI: > 74.2 µM
[55]
  GI50: 28.3 µM
  TGI: > 100000 nM
[56]
  GI50: 30.7 µM
  TGI: > 87900 nM
[57]
  GI50: 16.3 µM
  TGI: 54.4 µM

## Cc1ccc2c(c1)n([O-])c(C(F)(F)F)c(C(=O)c1ccco1)[n+]2=O
[1]
  GI50: 1.47 µM
  TGI: 6.82 µM
[2]
  GI50: 0.556 µM
  TGI: 1.3 µM
[3]
  GI50: 0.564 µM
  TGI: 1330 nM
[4]
  GI50: 0.719 µM
  TGI: 2.88 µM
[5]
  GI50: 0.433 µM
  TGI: 1.52 µM
[6]
  GI50: 1.94 µM
  TGI: 8.74 µM
[7]
  GI50: 0.716 µM
  TGI: 1.67 µM
[8]
  GI50: 0.176 µM
  TGI: 0.93 µM
[9]
  GI50: 0.966 µM
  TGI: 8.15 µM
[10]
  GI50: 0.684 µM
  TGI: 2640 nM
[11]
  GI50: 0.723 µM
  TGI: 1.61 µM
[12]
  GI50: 0.929 µM
  TGI: 2.65 µM
[58]
  GI50: 622 nM
  TGI: 2910 nM
[13]
  GI50: 1.1 µM
  TGI: 34.5 µM
[14]
  GI50: 1.22 µM
  TGI: 6.59 µM
[15]
  GI50: 0.762 µM
  TGI: 4.9 µM
[16]
  GI50: 1.3 µM
  TGI: 6.55 µM
[17]
  GI50: 0.472 µM
  TGI: 4.18 µM
[18]
  GI50: 0.217 µM
  TGI: 1 µM
[19]
  GI50: 0.627 µM
  TGI: 4.21 µM
[20]
  GI50: 0.965 µM
  TGI: 3.35 µM
[21]
  GI50: 1210 nM
  TGI: 3.21 µM
[22]
  GI50: 0.319 µM
  TGI: 1.81 µM
[23]
  GI50: 0.357 µM
  TGI: 2690 nM
[24]
  GI50: 0.74 µM
  TGI: 3.55 µM
[25]
  GI50: 0.562 µM
  TGI: 7.62 µM
[26]
  GI50: 0.816 µM
  TGI: 2060 nM
[27]
  GI50: 0.457 µM
  TGI: 1.97 µM
[28]
  GI50: 1.59 µM
  TGI: 7.39 µM
[29]
  GI50: 0.205 µM
  TGI: 9 µM
[30]
  GI50: 0.994 µM
  TGI: 12.7 µM
[31]
  GI50: 0.833 µM
  TGI: 2.5 µM
[32]
  GI50: 4.16 µM
  TGI: 23.6 µM
[33]
  GI50: 2.07 µM
  TGI: 20.7 µM
[35]
  GI50: 0.632 µM
  TGI: 5.15 µM
[36]
  GI50: 0.996 µM
  TGI: 3.85 µM
[37]
  GI50: 0.573 µM
  TGI: 1.75 µM
[38]
  GI50: 0.306 µM
  TGI: 4.82 µM
[39]
  GI50: 0.918 µM
  TGI: 2.67 µM
[40]
  GI50: 0.0743 µM
  TGI: 859 nM
[41]
  GI50: 1.72 µM
  TGI: 9.03 µM
[42]
  GI50: 1.2 µM
  TGI: 7.73 µM
[44]
  GI50: 0.0845 µM
  TGI: 0.448 µM
[45]
  GI50: 0.0556 µM
  TGI: 0.445 µM
[46]
  GI50: 4.4 µM
  TGI: 34.7 µM
[47]
  GI50: 0.744 µM
  TGI: 2.65 µM
[48]
  GI50: 0.755 µM
  TGI: 2.09 µM
[49]
  GI50: 0.924 µM
  TGI: 3.12 µM
[50]
  GI50: 1.09 µM
  TGI: 21.8 µM
[51]
  GI50: 0.262 µM
  TGI: 1520 nM
[52]
  GI50: 14.6 µM
  TGI: 50 µM
[53]
  GI50: 0.627 µM
  TGI: 1890 nM
[54]
  GI50: 1.4 µM
  TGI: 6.07 µM
[55]
  GI50: 0.667 µM
  TGI: 2490 nM
[56]
  GI50: 0.42 µM
  TGI: 2480 nM
[57]
  GI50: 1.42 µM
  TGI: 12.5 µM
